Laboratory results published in the NIST ThermoML archive (doi:10.1021/acs.jced.6b00399).
Counter-ions that a name gives are not always drawn. ± gives the expanded uncertainty stated by the source.

How the values were obtained:
[1] = xn = mol fraction of the nth substance listed; conditions: 101.3 kPa, Liquid, x1 = 0.66; for mass density: Pycnometric method
[2] = Liquid; for mass density: 101.3 kPa, Pycnometric method; for viscosity: 298.15 K, 101.33 kPa, Capillary tube (Ostwald / Ubbelohde) method

SMILES	mass density ([1]; 293.15 K) [kg/m3]	viscosity ([1]; 298.15 K, Capillary tube (Ostwald / Ubbelohde) method) [mPa·s]	mass density ([1]; 303.15 K) [kg/m3]	mass density ([1]; 313.15 K) [kg/m3]	mass density ([1]; 323.15 K) [kg/m3]	mass density ([2]; 293.15 K) [kg/m3]	viscosity [2] [mPa·s]	mass density ([2]; 303.15 K) [kg/m3]	mass density ([2]; 313.15 K) [kg/m3]	mass density ([2]; 323.15 K) [kg/m3]
OC1COCOC1 [1,3-dioxan-5-ol] + OCC1COCO1	1215.1 ± 2.8	20.05 ± 0.84	1206.7 ± 2.8	1198.2 ± 2.8	1189.7 ± 2.8					
CC1(C)OCC(CO)O1 (stereo not given) [2,2-dimethyl-1,3-dioxolane-4-methanol]						1067.8 ± 2.4	10.06 ± 0.15	1058.9 ± 2.4	1049.9 ± 2.4	1040.8 ± 2.4
CC(=O)OCC(COC(C)=O)OC(C)=O [glyceryl triethanoate]						1158.3 ± 2.5	16.36 ± 0.68	1147.3 ± 2.4	1136.6 ± 2.4	1125.7 ± 2.4
CCOC(=O)CC(CC(=O)OCC)(OC(C)=O)C(=O)OCC [triethyl acetyl citrate]						1142.1 ± 3.4	46.55 ± 1.2	1134.1 ± 3.3	1124.2 ± 3.3	1112.9 ± 3.3
CCOC(=O)CC(O)(CC(=O)OCC)C(=O)OCC [triethyl citrate]						1137.1 ± 2.6	32.1 ± 0.64	1131.3 ± 2.6	1122.4 ± 2.6	1114 ± 2.5
